According to PMC6300691, “Enhancement of Heat Stability and Kinetic Parameters of the Maize Endosperm ADP-Glucose Pyrophosphorylase by Mutagenesis of Amino Acids in the Small Subunit With High B Factors” (Frontiers in Plant Science, 2018):
Numbering of substitutions follows the chain as printed.

Columns and labels:
[1] = biological target: T1, wt (SH2-WT/BT2-WT) (Zea mays, UniProt P55241+Q947C0)
Protocol: All reactions were developed as above. The activation constant was fitted to the following equation, V = Vmin + Vmax^∗X/(Ka + X), since several enzymes had appreciable activity in the absence of activator. Here, Vmin is the velocity in the absence of activator and Vmax is the change in activity from Vmin to the total velocity, X is the activator concentration, Ka is the activation constant. All linear regressions were carried out using the software program Prism (GraphPad, San Diego, CA, United States).

[2] = biological target: T1, wt (SH2-WT/BT2-WT); conditions: read-out: ATP Km (absence of 3-PGA)
Excerpt: (§1) Activity in the absence of the activator 3PGA was examined. While 3PGA is a noted activator for plant AGPase, the mechanism of activation differs for the various AGPases. […] Thus, the term “activation fold” in the literature is merely an activity reported at single fixed substrate concentrations.
(§2) The small subunit mutant, MP, contains the first 198 amino acids of the small subunit of the maize endosperm enzyme and the last 277 amino acids from the potato tuber enzyme resulting in thirty-three amino acid sites that differ from the maize endosperm enzyme ([Cross et al., 2004]).

[3] = biological target: T2, E123G, R331K, K402R (BT2-BF) (Zea mays, UniProt P55241+Q947C0, E123G/R331K/K402R); assay: Initial-rate assay without 3-PGA, ATP and G-1-P both varied (0.01-10 mM and 0.1-25 mM), global fit to a sequential mechanism.; type: biochemical; conditions: read-out: ATP Km (absence of 3-PGA)
T2 construct: BT2-BF with wild type SH2 (SH2-WT/BT2-BF), E. coli, purified
T2 sequence (Q947C0 1-475 E123G/R331K/K402R): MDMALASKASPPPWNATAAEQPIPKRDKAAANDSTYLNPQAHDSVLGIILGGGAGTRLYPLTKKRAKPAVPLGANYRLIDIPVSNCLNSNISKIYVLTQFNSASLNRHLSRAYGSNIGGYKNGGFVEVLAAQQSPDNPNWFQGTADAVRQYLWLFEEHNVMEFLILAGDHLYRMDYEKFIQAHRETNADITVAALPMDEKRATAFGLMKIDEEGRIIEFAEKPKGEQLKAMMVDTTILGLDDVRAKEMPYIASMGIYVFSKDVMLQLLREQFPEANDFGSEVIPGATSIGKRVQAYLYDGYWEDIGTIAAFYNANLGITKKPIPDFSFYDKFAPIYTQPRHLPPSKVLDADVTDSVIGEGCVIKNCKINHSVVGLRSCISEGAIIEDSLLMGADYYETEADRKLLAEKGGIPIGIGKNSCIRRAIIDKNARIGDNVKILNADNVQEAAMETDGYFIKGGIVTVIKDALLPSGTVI
T2 sequence (P55241 46-516): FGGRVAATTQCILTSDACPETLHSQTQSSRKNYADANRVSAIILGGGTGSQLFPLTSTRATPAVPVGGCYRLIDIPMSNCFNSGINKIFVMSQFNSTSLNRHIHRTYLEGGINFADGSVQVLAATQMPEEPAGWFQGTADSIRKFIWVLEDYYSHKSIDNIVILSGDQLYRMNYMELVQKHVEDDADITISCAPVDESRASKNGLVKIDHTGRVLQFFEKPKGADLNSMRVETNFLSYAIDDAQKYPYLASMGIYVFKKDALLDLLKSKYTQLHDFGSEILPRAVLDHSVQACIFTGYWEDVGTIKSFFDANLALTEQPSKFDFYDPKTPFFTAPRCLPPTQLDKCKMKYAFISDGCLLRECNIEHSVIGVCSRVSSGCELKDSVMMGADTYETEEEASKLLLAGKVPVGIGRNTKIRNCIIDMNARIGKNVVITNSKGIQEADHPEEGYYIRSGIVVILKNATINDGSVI
Excerpt: as §1, §2

[4] = biological target: T3, SH2-E/BT2-BF (Zea mays, UniProt P55241+Q947C0, E123G/N131R/T142F/A160T/Q261S/R331K/A396S/K402R/V416I/C424V/S444A); assay: as above; type: biochemical; conditions: read-out: ATP Km (absence of 3-PGA)
T3 construct: SH2-E co-expressed with BT2-BF, E. coli, purified
T3 sequence (Q947C0 1-475 E123G/R331K/K402R): T2 sequence (Q947C0 1-475 E123G/R331K/K402R)
T3 sequence (P55241 46-516 N131R/T142F/A160T/Q261S/A396S/V416I/C424V/S444A): T2 sequence (P55241 46-516) with N86R, T97F, A115T, Q216S, A351S, V371I, C379V, S399A
Excerpt: as §1, §2

[5] = biological target: T2, E123G, R331K, K402R (BT2-BF); assay: Pi inhibition study without 3-PGA, ATP varied (0.1-3 mM) at fixed Pi levels (10-30 mM) and sub-saturating G-1-P (1 mM), fit to mixed-type inhibition equations.; type: biochemical; conditions: read-out: Km (mM), varied substrate ATP, Pi inhibition in the absence of 3-PGA
Protocol: (§3) Pi inhibition was carried out in both the presence and absence of 3-PGA with the Pi and substrate concentrations listed below.
(§4) Pi inhibition patterns in the presence and absence of 3PGA were also determined. Pi inhibition patterns were obtained by varying one substrate at several fixed concentrations of Pi, while holding the co-substrate at constant sub-saturating levels.

[6] = biological target: T4, SH2-E (Zea mays, UniProt P55241+Q947C0, N131R/T142F/A160T/Q261S/A396S/V416I/C424V/S444A); assay: as above; type: biochemical; conditions: read-out: Km (mM), varied substrate ATP, Pi inhibition in the absence of 3-PGA
T4 construct: SH2-E with wild type BT2 (SH2-E/BT2-WT), E. coli, purified
T4 sequence (Q947C0 1-475): T2 sequence (Q947C0 1-475 E123G/R331K/K402R) with G123E, K331R, R402K
T4 sequence (P55241 46-516 N131R/T142F/A160T/Q261S/A396S/V416I/C424V/S444A): T2 sequence (P55241 46-516) with N86R, T97F, A115T, Q216S, A351S, V371I, C379V, S399A
Protocol: as §3, §4

[7] = biological target: T3, SH2-E/BT2-BF; assay: as above; type: biochemical; conditions: read-out: Km (mM), varied substrate ATP, Pi inhibition in the absence of 3-PGA
Protocol: as §3, §4

T1 sequence (Q947C0 1-475, one chain of several): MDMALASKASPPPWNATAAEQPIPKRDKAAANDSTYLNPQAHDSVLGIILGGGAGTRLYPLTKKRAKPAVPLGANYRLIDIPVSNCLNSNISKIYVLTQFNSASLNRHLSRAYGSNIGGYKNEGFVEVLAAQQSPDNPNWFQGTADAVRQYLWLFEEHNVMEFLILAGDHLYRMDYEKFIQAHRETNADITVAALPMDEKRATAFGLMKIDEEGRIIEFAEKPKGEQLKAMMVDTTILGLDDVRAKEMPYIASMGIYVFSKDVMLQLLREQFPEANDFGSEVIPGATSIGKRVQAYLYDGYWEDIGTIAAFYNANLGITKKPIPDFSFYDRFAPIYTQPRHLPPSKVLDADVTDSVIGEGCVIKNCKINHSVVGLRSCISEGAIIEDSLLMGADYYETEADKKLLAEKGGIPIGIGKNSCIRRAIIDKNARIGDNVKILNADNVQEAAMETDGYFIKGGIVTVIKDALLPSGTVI

O=C(O)[C@H](O)COP(=O)(O)O [3-PGA, 3-phosphoglycerate (3-phosphoglyceric acid)]
3-PGA Ka (activation constant) [1]: 0.26 ± 0.061

Nc1ncnc2c1ncn2[C@@H]1O[C@H](COP(=O)(O)OP(=O)(O)OP(=O)(O)O)[C@@H](O)[C@H]1O [ATP, adenosine 5'-triphosphate]
Km [2]: 4000 µM | Km [3]: 300 ± 250 µM | Km [4]: 2410 ± 350 µM | Km [5]: 0.79 ± 0.075 mM | Km [6]: 0.97 ± 0.081 mM | Km [7]: 4.98 ± 0.66 mM
